A word on the melting point: it is the temperature of the solid-liquid transition. A word on the EC50: it is the concentration giving half of the maximal effect. Low values mean greater potency, high ones weaker potency. By IC50 is commonly meant the point on the concentration scale where inhibition reaches its midpoint.

Data set [1] has as its target SHP1 (Homo sapiens, UniProt P29350). The data set is described as follows: SHP1 enzyme assay (DiFMUP fluorogenic substrate), activation. In kind it is biochemical. Conditions: for EC50 / Maximum Activation Fold: mean ± SEM. The text has this:
The SHP1-activating effects of the synthetic compounds were examined by the 6,8-difluoro-4-methylumbelliferyl phosphate (DiFMUP) assay.
(§1) The proteins SHP1 and SHP2, containing a GST-tag, were expressed in E. coli. 6,8-Difluoro-4-methylumbelliferyl phosphate (DiFMUP) was used as the fluorogenic substrate. Fluorescence data were collected by the Envision (PerkinElmer, Waltham, MA, USA) plate reader, using excitation and emission wavelengths of 358 and 455 nm, respectively. A sigmoidal dose-response curve was fitted to the data, and the EC50 values were calculated using GraphPad Prism. In the data processing, the fitting and curves were calculated using nonlinear regression, and the fold value of the compound was calculated using the software GraphPad Prism 8. The folds were obtained according to the equation: Y = Bottom + (Top-Bottom)/(1 + 10^((LogEC50-X) × HillSlope)). The data represent mean values ± standard error of the mean (SEM) of eight-point experiments, each performed in triplicates from three independent experiments.

Data set [2] has as its system acute promyelocytic leukemia (APL) cell line NB4. The experiment in a line: CCK8 cell viability assay, NB4. In kind it is cell-based. The settings on record: Homo sapiens, NB-4, NB4 cells, 72 h. Here is the method: (§2) Acute lymphoblastic leukemia (ALL) cell line RS4;11 (2.5 × 10^4 cells per well), acute promyelocytic leukemia (APL) cell line NB4 (1 × 10^4 cells per well), and non-small cell lung cancer (NSCLC) cell line NCI-H1299 (1.5 × 10^3 cells per well) were seeded into 96-well plates. After treatment with different concentrations of drugs, the cells were incubated in quadruple for 72 h. Thereafter, a 10 μL CCK8 solution was added to each well. After a 3 h incubation at 37 °C, the plates were read for absorbance at 450 nm and 650 nm using a SpectraMax Molecular Devices microplate reader. The final data were calibrated by OD450 nm-OD650 nm. The inhibition rates of proliferation were calculated with the following equation:Inhibition ratio = (ODDMSO-ODCompd)/(ODDMSO-ODblank) × 100%.(1)
(§3) The concentrations of the compounds that inhibited cell growth by 50% (IC50) were calculated using GraphPad Prism version 5.0. NVP-2 was used as a positive control.

For data set [3], the system named is acute lymphoblastic leukemia (ALL) cell line RS4;11. The data set is described as follows: CCK8 cell viability assay, RS4;11. The format is cell-based. Conditions: Homo sapiens, RS4-11, 72 h, RS4;11 cells. Here is the method: as §2, §3
In general terms: Formazan colour is commonly taken as a measure of viable cells.

For data set [4], the target named is T1, SHP2 (Homo sapiens, UniProt Q06124).
T1 sequence (Q06124 1-593): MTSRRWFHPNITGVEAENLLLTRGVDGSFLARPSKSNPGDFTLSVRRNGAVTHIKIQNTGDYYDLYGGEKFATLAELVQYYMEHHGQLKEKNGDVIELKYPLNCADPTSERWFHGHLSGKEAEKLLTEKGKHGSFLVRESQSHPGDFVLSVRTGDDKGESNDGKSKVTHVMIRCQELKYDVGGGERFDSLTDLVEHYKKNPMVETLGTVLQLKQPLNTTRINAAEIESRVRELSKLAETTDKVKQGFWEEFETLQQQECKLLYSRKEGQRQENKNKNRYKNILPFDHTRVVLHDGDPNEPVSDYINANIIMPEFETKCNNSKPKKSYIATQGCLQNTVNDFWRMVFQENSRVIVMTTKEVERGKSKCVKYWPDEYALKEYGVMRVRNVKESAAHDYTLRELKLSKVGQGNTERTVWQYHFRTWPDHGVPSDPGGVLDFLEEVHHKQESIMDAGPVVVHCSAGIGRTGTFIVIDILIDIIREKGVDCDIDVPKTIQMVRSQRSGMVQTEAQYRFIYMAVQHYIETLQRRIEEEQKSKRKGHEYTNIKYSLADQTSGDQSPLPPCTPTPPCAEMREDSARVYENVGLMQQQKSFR
The data set is described as follows: SHP2 enzyme assay (DiFMUP fluorogenic substrate), activation. In kind it is biochemical. As for the experimental part: as §1

The subject of data set [5] is non-small cell lung cancer (NSCLC) cell line NCI-H1299. The experiment in a line: CCK8 cell viability assay, NCI-H1299. In kind it is cell-based. Conditions: Homo sapiens, NCI-H1299 cells, 72 h. As for the experimental part: as §2, §3

Each structure is given as a SMILES string.

Sequence of SHP1 (P29350 whole entry): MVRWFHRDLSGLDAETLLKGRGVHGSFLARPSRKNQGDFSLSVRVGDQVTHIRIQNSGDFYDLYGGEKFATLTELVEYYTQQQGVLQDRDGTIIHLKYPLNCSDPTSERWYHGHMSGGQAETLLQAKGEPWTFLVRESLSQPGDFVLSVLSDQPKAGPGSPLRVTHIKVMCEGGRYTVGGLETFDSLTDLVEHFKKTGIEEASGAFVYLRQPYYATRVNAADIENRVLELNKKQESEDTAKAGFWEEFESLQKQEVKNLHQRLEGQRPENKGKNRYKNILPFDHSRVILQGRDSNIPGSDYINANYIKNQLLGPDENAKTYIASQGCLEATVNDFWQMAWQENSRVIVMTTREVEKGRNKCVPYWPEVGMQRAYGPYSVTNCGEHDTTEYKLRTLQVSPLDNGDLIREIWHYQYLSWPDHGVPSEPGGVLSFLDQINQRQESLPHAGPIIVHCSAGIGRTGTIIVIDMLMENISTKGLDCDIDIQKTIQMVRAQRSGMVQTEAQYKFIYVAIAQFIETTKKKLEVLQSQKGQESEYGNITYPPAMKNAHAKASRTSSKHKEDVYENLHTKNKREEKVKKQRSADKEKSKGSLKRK

Consider `C[C@H](CO)[C@H]1CCC2C3CC=C4C(C)(C)C(N)CC[C@]4(C)C3CC[C@@]21C` (some centres unmarked) [Compound 5aw], for which the melting point lay within 170.6 to 173.8 °C. For the same compound, in data set [1] (DiFMUP assay), the half-maximal effective concentration (EC50) stood at 35.5 ± 3.15 µM.
`C[C@H](CCCO)[C@H]1CCC2C3CC=C4C(C)(C)C(NC(=O)Nc5ccc(Cl)c(C(F)(F)F)c5)CC[C@]4(C)C3CC[C@@]21C` (stereo partly drawn) [Compound 5ax, 1-(4-chloro-3-(trifluoromethyl)phenyl)-3-((10R,13R,17R)-17-((R)-5-hydroxypentan-2-yl)-4,4,10,13-tetramethyl-2,3,4,7,8,9,10,11,12,13,14,15,16,17-tetradecahydro-1H-cyclopenta[a]phenanthren-3-yl)urea] registered a melting point of 221.1 to 223.7 °C. Besides, in data set [1] (DiFMUP assay), the “SHP1 activity (in words)” value is listed as “no activity” and the EC50 is greater than 50 µM.
`C[C@H](CCCOc1ccc(NC(=O)Nc2ccc(Cl)c(C(F)(F)F)c2)cc1)[C@H]1CCC2C3CC=C4C(C)(C)C(N)CC[C@]4(C)C3CC[C@@]21C` (some centres unmarked) [Compound 5ay]: the melting point was in the range of 192.3 to 194.5 °C. In data set [1] (DiFMUP assay), a half-maximal effect (EC50) was put at 2.05 ± 0.14 µM and the “Maximum Activation Fold” value turned out to be 5.54 ± 0.24 fold.
`C[C@H](COc1ccc(NC(=O)Nc2ccc(Cl)c(C(F)(F)F)c2)cc1)[C@H]1CCC2C3CC=C4C(C)(C)C(N)CC[C@]4(C)C3CC[C@@]21C` (some centres unmarked) [Compound 5ba] returned a melting point of 197.1 to 198.6 °C. This compound gave an IC50 in data set [2] of 3.74 ± 0.39 µM. Besides, in data set [1] (DiFMUP assay), the EC50 came out at 1.54 ± 0.24 µM and the “Maximum Activation Fold” value is recorded as 7.63 ± 0.20 fold. Moreover, the “increase in potency compared to 5aw” value in data set [1] (SHP1 EC50 ratio vs 5aw) is given as roughly 23 times. In data set [3], half-maximal inhibition (IC50) was put at 4 ± 0.22 µM. The compound also showed an EC50 in data set [4] (DiFMUP assay) greater than 50 µM. Further, in data set [4] (ratio of EC50 values, SHP2 vs SHP1), the “selectivity for SHP1 over SHP2” value is listed as “more than 32 fold”. In data set [5], this compound had an IC50 of 5.51 ± 0.23 µM.

Source of the values: paper PMC10056611, “Synthesis and Biological Evaluation of 3-Amino-4,4-Dimethyl Lithocholic Acid Derivatives as Novel, Selective, and Cellularly Active Allosteric SHP1 Activators” (Molecules, 2023).
